Data: patent US20010049368A1, “Method for treating or preventing depression” (priority 2000, published 2001)

How the values were obtained:
[1] = test system: PDE IV inhibitor-induced emesis in the ferret; experiment: Ferret emesis: PDE4 inhibitors and neurokinin-1 receptor antagonists; format: in vivo; conditions: NK-1 antagonist 3 mg kg-1 i.p. or s.c. 30 minutes prior to oral emetic dose of PDE IV inhibitor
Experimental: Intracerebroventricular (i.c.v.) administration was performed following a surgical implantation of an i.c.v. guide cannula. Under isoflurane anaesthesia, a 22 gauge stainless steel guide cannula (total length=20 mm) was lowered 9 mm below the surface of the skull, at the midline, 2 mm anterior to the cross-suture of the posterior edge of the skull. The tip of the guide cannula is then positioned 3-5 mm directly above the area postrema. The guide cannula was fixed to the skull using 2 screws and dental acrylic cement. The animals received antibiotic (Clamoxyl LA, SmithKline Beecham, Surrey, U.K.; 15 mg kg^−1 s.c.) and analgesic injections (Zenecarp, C-Vet Limited, Edmounds, U.K.; 5 mg kg^−1 s.c.) and were housed in individual cages. They were allowed at least 1 week to recover. Intracerebroventricular administration of drugs was performed by inserting an injection unit of 24-25 mm (level of the area postrema) or 27 mm (for brain tissue injection) length into the guide cannula and infusing 2 μl of the drug solution (or vehicle) over 1 minute. The drugs were dissolved in DMSO or sterile water. […]
Anti-emetic agents ondansetron (3 mg kg^−1 i.p.), and neurokinin-1 receptor antagonists (3 mg kg^−1 i.p. or s.c.) were administered 30 minutes prior to an oral challenge with an emetic dose of selected PDE IV inhibitors. […] The emetic response was monitored as described earlier. […]

[2] = test system: emesis in ferrets (retches and vomits); experiment: Ferret emesis: PDE4 inhibitors and alpha-2 adrenoreceptor agonists/antagonists; conditions: for emesis (retching and vomiting) induced by the drug itself: yohimbine by intraperitoneal injection, clonidine 62.5-250 μg kg-1
Experimental: Experiments were conducted using male, adult, fitch or albino ferrets. They were housed in a humidity and temperature controlled environment and fed on carnivore diet (standard cat food) once a day with water ad libitum. On the day of the experiment, the animals were put in individual observation cages and left to habituate for at least 30 minutes.
Drugs were dissolved immediately before use in 100% PEG 300 or sterile water). Oral administration (p.o.) was performed using a 10 cm feeding tube and drugs were administered in a dosing volume of 1 ml kg^−1. Subcutaneous (s.c.) injections were performed at the base of the neck, using sterile water or PEG 300 as the vehicle. The injection volume used was 0.5-1.0 ml kg^−1. For intravenous (i.v.) injections, the left jugular vein was catheterized with a polyethene cannula under halothane anaesthesia. Drugs were dissolved in PEG 300 50% in sterile water and injected in a volume of 1 ml-kg^−1. The vein was then ligated, the incision closed and the animals observed continuously thereafter.
Ferrets were pre-treated with the alpha2-adrenoceptor antagonist, yohimbine.

human NK-1 receptor = biological target: T1, human NK-1 receptor (Homo sapiens, UniProt P25103); experiment: NK-1 receptor binding assay in intact CHO cells (125I-Tyr8-substance P); conditions: CHO cells expressing the human NK-1 receptor
T1 construct: expressed in transfected cells; host or cells: intact CHO (Chinese hamster ovary) cells
T1 sequence (P25103 whole entry): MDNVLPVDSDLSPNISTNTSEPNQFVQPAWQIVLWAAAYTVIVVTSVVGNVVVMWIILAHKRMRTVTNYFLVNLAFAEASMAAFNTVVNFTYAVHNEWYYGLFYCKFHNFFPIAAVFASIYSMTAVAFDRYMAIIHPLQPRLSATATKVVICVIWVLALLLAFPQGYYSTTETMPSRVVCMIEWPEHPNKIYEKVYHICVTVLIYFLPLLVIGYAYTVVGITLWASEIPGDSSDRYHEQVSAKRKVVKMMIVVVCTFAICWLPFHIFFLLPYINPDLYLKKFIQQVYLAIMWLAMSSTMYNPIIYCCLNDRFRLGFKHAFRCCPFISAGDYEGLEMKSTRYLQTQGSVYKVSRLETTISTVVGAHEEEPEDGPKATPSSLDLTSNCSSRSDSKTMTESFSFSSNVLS
Experimental: NK-1 receptor binding assays are performed in intact Chinese hamster ovary (CHO) cells expressing the human NK-1 receptor using a modification of the assay conditions described by Cascieri et al, J. Pharmacol. Exp. Ther., 1992, 42, 458. Typically, the receptor is expressed at a level of 3×10^5 receptors per cell. Cells are grown in monolayer culture, detached from the plate with enzyme-free dissociation solution (Speciality Media Inc.), and washed prior to use in the assay. ^125I-Tyr^8-substance P (0.1 nM, 2000 Ci/mmol; New England Nuclear) is incubated in the presence or absence of test compounds (dissolved in 5 μl dimethylsulphoxide, DMSO) with 5×10^4 CHO cells. Ligand binding is performed in 0.25 ml of 50 mM Tris-HCl, pH7.5, containing 5 mM MnCl2, 150 mM NaCl, 0.02% bovine serum albumin (Sigma), 50 μg/ml chymostatin (Peninsula), 0.1 nM phenylmethylsulphonyl fluoride, 2 μg/ml pepstatin, 2 μg/ml leupeptin and 2.8 μg/ml furoyl saccharine. The incubation proceeds at room temperature until equilibrium is achieved (>40 minutes) and the receptor-ligand complex is harvested by filtration over GF/C filters pre-soaked in 0.1% polyethylenimine using a Tomtek 96-well harvester. Non-specific binding is determined using excess substance P (1 μM) and represents <10% of total binding.

Which “effect on PDE IV inhibitor-induced emesis” value [1] does the source give for `COc1ccccc1CN[C@H]1CCCN[C@H]1c1ccccc1` [CP-99,994] here?
Its value is “abolished”.

For `CS(=O)(=O)NCCN1C(=O)NC[C@]12CCN1CCc3c(oc4ccccc34)[C@@H]1C2` [MK-467], which “emesis (retching and vomiting) induced by the drug itself” value (from here on “emesis (retching and vomiting) induced”) [2] is on record?
The value was “Emesis was also recorded”.

Which results are given for `Clc1cccc(Cl)c1N=C1NCCN1` [clonidine]?
number of retches and vomits induced by RS 14203 ([2]; RS 14203 1 mg kg-1 p.o., clonidine 62.5-250 μg kg-1 pre-treatment): dose-dependently decreased; latency of onset of RS 14203-induced emesis ([2]; RS 14203 1 mg kg-1 p.o., clonidine pre-treatment): increased; emesis induced by CT-2450 ([2]; clonidine 250 μg kg-1, CT-2450 30 mg kg-1 p.o., all animals treated): abolished; animals with complete protection against R-rolipram-induced emesis ([2]; clonidine 250 μg kg-1, R-rolipram 3 mg kg-1 p.o.): two out of three; animals with complete protection against RS 14203-induced emesis ([2]; clonidine 250 μg kg-1, RS 14203 1 mg kg-1 p.o.): five out of six

Which “emesis (retching and vomiting) induced” value [2] does the source give for `CN1CC[C@]2(CCN3CCc4c(oc5ccccc45)[C@@H]3C2)N(C)C1=O` [MK-912] here?
The value was “Emesis was also recorded”.

With `COC(=O)[C@@H]1[C@H]2C[C@H]3c4[nH]c5ccccc5c4CCN3C[C@@H]2CC[C@@H]1O` [yohimbine] as the compound, how does the “emesis (retching and vomiting) induced” value [2] read?
Its value is “induced retching and vomiting in all ferrets treated”.

Which IC50 (human NK-1 receptor) does the source give for `C[C@@H](O[C@H]1OCCN(Cc2nn[nH]c2CN(C)C)[C@H]1c1ccccc1)c1cc(C(F)(F)F)cc(C(F)(F)F)c1` [2-(R)-(1-(R)-(3,5-bis(trifluoromethyl)phenyl)ethoxy)-4-(5-(N,N-dimethylamino)methyl-1,2,3-triazol-4-yl)methyl-3-(S)-phenylmorpholine] here?
Its IC50 is 0.25 nM.
